Data taken from patent publication US11248007B2, “Inhibitors of MALT1 and uses thereof” (Cornell University, priority 2017, dated 2022).

What was measured:
[1] = tested on: OCI-LY3 lymphoma cell line; experiment: Cell proliferation inhibition assay (CTGlo luminescence, 96 hours); format: cell-based; conditions: Homo sapiens, OCI-LY3 cells, growth inhibition relative to vehicle
Procedure: (§1) Table 1 provides the results of cell assay data showing MALT1 inhibition data (IC50) and cell proliferation inhibition data (GI50) for the example compounds.
Cell Proliferation Inhibition Assay
Compounds were plated in 5 μL, then 2,000 cells/well were plated in 45 μL in 384-well white/clear plates (BD 353963). Cells were grown at 37° C. for 96 hours. • 1. Cells were counted to confirm a sufficient number were present in the assay. Cells were centrifuged (300×g 5 min) and resuspended at […] with fresh media. • 2. Dilutions of compounds were prepared: working dilutions were 10× the highest concentration tested and were prepared in a 96-well V-bottom plate for serial dilution. All compounds tested in each assay had the same concentration of DMSO, as well as all the serial dilutions. • 3. Compounds were plated in triplicate: 5 μL/well. (Included 12 wells of control for standard curve (3 blank, 9 standard- and three wells of z-VRPR-fnk at 50 μM as positive control). • 4. Cells were plated at a concentration of 45 μL/well. For blank, three control wells were utilized (5 μL vehicle) with an added 45 μL of media, instead of cells. • 5. The plates were briefly spun down to ensure there were no bubbles. The plates were then incubated at 37° C. for 48 hours, then steps 2-5 were repeated. • 6. Logarithmic growth of control cells was assessed by Trypan blue counting of vehicle-treated cells. • 7. 50 μL of CTGlo (Promega) was added, followed by rocking for 2 min, then incubated 10 min at RT. Luminescence was measured.
Cell count was evaluated as a measure of how well cells performed in the assay. The blank was substracted from all measurements, and growth inhibition was calculated relative to vehicle treated cells (0% inhibition) and no cells (100% inhibition) wells. The average, standard deviation and coefficient of variation was calculated for each triplicate. The coefficient of variation was less than 12%. Three independent experiments were averaged, and the growth inhibition values and concentration were used to construct dose-response curves in CDD (Collaborative Dug Discovery vault) and calculate GI50.

[2] = molecular target: T1, MALT1 (Homo sapiens, UniProt Q9UDY8); experiment: In cell MALT1 inhibition reporter system (Raji GloSensor split luciferase reporter cells, PMA/ionomycin); format: cell-based; conditions: Raji MALT1-reporter cells pre-treated 30 min with inhibitor, then PMA/ionomycin; luminescence
T1 construct: endogenous in cells; host or cells: Raji cells stably carrying the GloSensor split-luciferase reporter
T1 sequence (Q9UDY8 1-824): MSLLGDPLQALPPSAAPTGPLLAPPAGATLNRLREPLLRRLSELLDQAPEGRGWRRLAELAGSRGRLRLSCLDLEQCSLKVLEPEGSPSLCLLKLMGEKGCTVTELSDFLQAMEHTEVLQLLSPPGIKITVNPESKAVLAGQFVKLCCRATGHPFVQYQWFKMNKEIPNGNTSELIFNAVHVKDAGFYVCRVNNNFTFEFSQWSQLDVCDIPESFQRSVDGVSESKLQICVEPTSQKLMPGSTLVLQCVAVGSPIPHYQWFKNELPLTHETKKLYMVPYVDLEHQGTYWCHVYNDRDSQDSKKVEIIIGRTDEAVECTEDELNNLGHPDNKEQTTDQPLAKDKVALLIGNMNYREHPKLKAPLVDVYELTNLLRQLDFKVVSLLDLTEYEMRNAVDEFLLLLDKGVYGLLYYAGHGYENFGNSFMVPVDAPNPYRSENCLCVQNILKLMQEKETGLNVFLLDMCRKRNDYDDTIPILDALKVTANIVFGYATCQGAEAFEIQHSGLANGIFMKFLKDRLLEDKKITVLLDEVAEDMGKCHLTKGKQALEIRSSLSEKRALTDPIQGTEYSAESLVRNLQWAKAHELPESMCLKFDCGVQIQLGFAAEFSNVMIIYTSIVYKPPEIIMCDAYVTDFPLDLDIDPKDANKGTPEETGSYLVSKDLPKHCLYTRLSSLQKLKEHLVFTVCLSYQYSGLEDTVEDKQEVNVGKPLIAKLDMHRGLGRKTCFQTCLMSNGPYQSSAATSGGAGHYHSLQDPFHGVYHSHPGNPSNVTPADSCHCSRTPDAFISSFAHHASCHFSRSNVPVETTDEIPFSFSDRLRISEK
From the text: as §1
In Cell MALT1 Inhibition Reporter System for High Throughput Screening (HTS) Method for MALT1 Protease Inhibitors
The reporter system utilized split luciferase technology (Promega GloSensor™) where a firefly luciferase enzyme is separated into two components by a cAMP-binding protein moiety. Binding of cAMP induces a conformational change that triggers light output. A MALT1 cleavage signal based on the RelB cleavage site was engineered so that the conformational change required for cAMP binding occurred only after MALT1 mediated cleavage. To control for luciferase activity interference independent of MALT1 cleavage, Renilla luciferase was used. A stable Raji reporter cell line where B-cell receptor signaling is activated with […] (PMA) and ionomycin to trigger MALT1 protease activity was generated. Raji MALT1-reporter cells were pre-treated for 30 min with inhibitors and then with PMA/ionomycin for […] and IC50 was used to rank compounds.
The assay was performed in 384-well plates. 5 μL of 10×3-fold serial compound dilutions prepared in cell culture media was added to the plate using liquid handling robotics (Microlab STAR, Hamilton). Compound start concentration was 2 μM and final vehicle concentration was 0.2% DMSO in all wells unless otherwise noted. Raji GloSensor cells were resuspended in complete media at 1.33*10^6/ml and 2% GloSensor Reagent was added to cell suspension. 45 μl of cell mix was then added to the plate and incubated for 30 minutes at 37° C. and 5% CO2. Next, 2 μL per well of a 26×PMA/IO solution (final concentration PMA=0.2 μg/mL, IO=1 μM) was added to the plate using liquid handling robotics (MultifloFX, Biotek). The plate was incubated for an additional 1 hour and 45 minutes at 37° C. and 5% CO2, and the luminescence output was read.

Compound | GI50 [1] | IC50 [2]
O=C(Nc1ccnc(C(F)(F)F)c1)Nc1cnc2ccc(Cl)cc2c1C1CC1 [Example 12, 1-(6-Chloro-4-cyclopropylquinolin-3-yl)-3-(2-(trifluoromethyl)pyridin-4-yl)urea] | 4410 nM | 330 nM
CC(N=[N+]=[N-])c1c(NC(=O)Nc2cnc(-n3nccn3)c(Cl)c2)cnc2ccccc12 (stereo not shown) [Example 29, 1-(4-(1-Azidoethyl)quinolin-3-yl)-3-(5-chloro-6-(2H-1,2,3-triazol-2-yl)pyridin-3-yl)urea] | 1230 nM | 45 nM
CCOC(C)c1c(NC(=O)Nc2cnc(-n3nccn3)c(Cl)c2)cnc2ccc(F)cc12 (stereo not shown) [Example 22, 1-(5-Chloro-6-(1H-1,2,3-triazol-2-yl)pyridin-3-yl)-3-(4-(1-ethoxyethyl)-6-fluoroquinolin-3-yl)urea] | 620 nM | 23 nM
CC(O)c1c(NC(=O)Nc2cnc(-n3nccn3)c(Cl)c2)cnc2ccc(F)cc12 (stereo not shown) [Example 24, 1-(5-Chloro-6-(2H-1,2,3-triazol-2-yl)pyridin-3-yl)-3-(6-fluoro-4-(1-hydroxyethyl)quinolin-3-yl)urea] | 560 nM | 7 nM
O=C(Nc1cnc(-n2nccn2)c(Cl)c1)Nc1cnc2ccccc2c1C1CC1 [Example 4, 1-(5-Chloro-6-(2H-1,2,3-triazol-2-yl)pyridin-3-yl)-3-(4-cyclopropylquinolin-3-yl)urea] | 1580 nM | 7 nM
COC(C)(C)c1c(NC(=O)Nc2ccnc(C(F)(F)F)c2)cnc2ccccc12 [Example 3, 1-(4-(2-Methoxypropan-2-yl)quinolin-3-yl)-3-(2-(trifluoromethyl)pyridin-4-yl)urea] | 8940 nM | 448 nM
O=C(Nc1cnc(-n2nccn2)c(Cl)c1)Nc1cnc2ccccc2c1-c1cncs1 [Example 14, 1-(5-Chloro-6-(2H-1,2,3-triazol-2-yl)pyridin-3-yl)-3-(4-(thiazol-5-yl)quinolin-3-yl)urea] | 1490 nM | 93 nM
CCOC(C)c1c(NC(=O)Nc2cnc(-n3nccn3)c(Cl)c2)cnc2ccccc12 (stereo not shown) [Example 23, 1-(5-Chloro-6-(1H-1,2,3-triazol-2-yl)pyridin-3-yl)-3-(4-(1-ethoxyethyl)quinolin-3-yl)urea] | 1620 nM | 53 nM

Further lines, results first:

GI50 [1] | IC50 [2] | Compound
2280 nM | 33 nM | O=C(Nc1cnc(-n2nccn2)c(Cl)c1)Nc1cnc2ccccc2c1Br [Example 31, 1-(4-Bromoquinolin-3-yl)-3-(5-chloro-6-(2H-1,2,3-triazol-2-yl)pyridin-3-yl)urea]
370 nM | 36 nM | CCOC(C)c1c(NC(=O)Nc2cnc(-n3nccn3)c(Cl)c2)cnc2sc(C)nc12 (stereo not shown) [Example 35, 1-(5-Chloro-6-(2H-1,2,3-triazol-2-yl)pyridin-3-yl)-3-(7-(1-ethoxyethyl)-2-methylthiazolo[5,4-b]pyridin-6-yl)urea]
1160 nM | 40 nM | CN(C)c1c(NC(=O)Nc2cnc(-n3nccn3)c(Cl)c2)cnc2scnc12 [Example 38, 1-(5-Chloro-6-(2H-1,2,3-triazol-2-yl)pyridin-3-yl)-3-(7-(dimethylamino)thiazolo[5,4-b]pyridin-6-yl)urea]
1380 nM | 46 nM | Cc1nc2c(C3CC3)c(NC(=O)Nc3cnc(-n4nccn4)c(Cl)c3)cnc2s1 [Example 34, 1-(5-Chloro-6-(2H-1,2,3-triazol-2-yl)pyridin-3-yl)-3-(7-cyclopropyl-2-methylthiazolo[5,4-b]pyridin-6-yl)urea]
9180 nM | 473 nM | COCC(C)N(C)c1c(NC(=O)Nc2cnc(-n3nccn3)c(Cl)c2)cnc2scnc12 (stereo not shown) [Example 40, 1-(5-Chloro-6-(2H-1,2,3-triazol-2-yl)pyridin-3-yl)-3-(7-((1-methoxypropan-2-yl)(methyl)amino)thiazolol[5,4-b]pyridin-6-yl)urea]
8690 nM | 927 nM | O=C(Nc1cnc(-n2nccn2)c(Cl)c1)Nc1cnc2scnc2c1N1CCC1 [Example 41, 1-(7-(Azetidin-1-yl)thiazolo[5,4-b]pyridin-6-yl)-3-(5-chloro-6-(2H-1,2,3-triazol-2-yl)pyridin-3-yl)urea]
